Laboratory results published in patent US20230035892A1, “METHODS AND COMPOSITIONS FOR TREATING CANCER” (Flagship Pioneering Innovations V, Inc., priority 2019, published 2023).

How the values were obtained:
Type in all cases: cell-based
[1] = system: PAXF1657 control empty vector; assay: 7-day CellTiter-Glo anti-proliferative assay; settings: PAXF1657, sgNTC, pReceiver-empty vector, 5 or 10 point dose curve
Method: (§1) Cell lines were seeded into tissue culture treated, white-walled, 96-well plates at a density of 500 cells/well in RPM11640 media supplemented with 10% H.I. FBS and penicillin/streptomycin. Plates were incubated overnight at 37° C., 5% CO2 to allow cells to adhere to the wells. GRK2 small molecule antagonists were added to the cells using a ten-point or five-point dilution series with a final concentration ranging from […] in 0.1% DMSO. At the time of compound addition, a set of plates that were not treated with compounds were collected and cell viability was measured using CellTiter-Glo (Promega). CellTiter-Glo reagent was added to the plates and luminescence was measured using a Biotek Synergy plate reader. The compound treated cells were incubated for 3 days at 37° C., 5% CO2. The media was then aspirated from each well and replaced with fresh media containing GRK2 small molecule antagonists. The compound treated cells were then incubated for another 4 days at 37° C., 5% CO2 and cell viability was assessed at the end of the 7-day compound treatment by CellTiterGlo.

[2] = system: PAXF1657 stably overexpressing GRK2 cDNA; assay: 7-day CellTiter-Glo anti-proliferative assay; settings: PAXF1657, sgNTC, pReceiver-GRK2, 5 or 10 point dose curve
Method: as §1

PAXF1657 = assay: Proliferation, percent viability normalized to DMSO
From the text: (§2) The GRK2 small molecule antagonist of Formula III-26 was used to evaluate the effect of a small molecule GRK2 antagonist on the proliferation of pancreatic cancer cell lines Miapaca2, Panc1, BXPC3, PAXF1657, PAXF1997 and Capan1. Values represent percent viability normalized to DMSO.

Capan1 = assay: as above; settings: Homo sapiens, CAPAN-1
From the text: as §2

PAXF1997 = assay: as above
From the text: as §2

PANC1 = assay: as above; settings: Homo sapiens, PANC-1
From the text: as §2

BXPC3 = assay: as above; settings: Homo sapiens, BXPC-3
From the text: as §2

MIAPACA2 = assay: as above; settings: Homo sapiens, MIA PaCa-2
From the text: as §2

[3] = system: sgGrk2-expressing Miapaca2 cells; assay: Colony formation assay in sgGrk2-expressing cells (target specificity); settings: Miapaca
Method: (§3) To assess the target specificity of the GRK2 small molecule antagonist of Formula III-26, sgGRK2-expressing cells were treated with the compound of Formula III-26. If GRK2 knockout is complete and the compound of Formula III-26 inhibits only GRK2, the addition of the compound of Formula III-26 should not induce any additional growth defect compared to sgRNA KO alone. […] This is potentially due to the lower GRK2 knockout efficiency that can be achieved in PAXF1657 compared to Miapaca2, as shown in Table 16.

[4] = system: sgGrk2-expressing PAXF1657 cells; assay: as above
Method: as §3

[5] = 168 h, read-out: Maximum % Growth inhibition relative to DMSO, geometric mean
[6] = PAXF1657, 1 μM, sgGRK2-2 (SEQ ID NO: 3)
[7] = PAXF1657, 1 μM, sgGRK2-3 (SEQ ID NO: 4)
[8] = PAXF1657, 3 μM, sgGRK2-2 (SEQ ID NO: 3)
[9] = PAXF1657, 3 μM, sgGRK2-3 (SEQ ID NO: 4)

Cn1c(CNc2cccc(C(=O)NCc3ccccc3C(F)(F)F)c2)nnc1-c1ccncc1 [Compound of Formula III-26]
Emax [1, 5]: 61%
GI50 ([1]; read-out: GI50, geometric mean): 9.49 µM
Emax [2, 5]: 24.8%
GI50 ([2]; read-out: GI50, geometric mean): > 10 µM
viability at 0.005 µM (PAXF1657; PAXF1657, dose 0.005 μM): 111%
viability at 0.014 µM (PAXF1657; PAXF1657, dose 0.014 μM): 111%
viability at 0.041 µM (PAXF1657; PAXF1657, dose 0.041 μM): 116%
viability at 0.123 µM (PAXF1657; PAXF1657, dose 0.123 μM): 118%
viability at 0.37 µM (PAXF1657; PAXF1657, dose 0.370 μM): 115%
viability at 1.111 µM (PAXF1657; PAXF1657, dose 1.111 μM): 110%
viability at 3.333 µM (PAXF1657; PAXF1657, dose 3.333 μM): 102%
viability at 10 µM (PAXF1657; PAXF1657, dose 10.000 μM): 88.6%
viability at 30 µM (PAXF1657; PAXF1657, dose 30.000 μM): 69%
viability at 0.005 µM (Capan1; Capan1, dose 0.005 μM): 107%
viability at 0.014 µM (Capan1; Capan1, dose 0.014 μM): 108%
viability at 0.041 µM (Capan1; Capan1, dose 0.041 μM): 112%
viability at 0.123 µM (Capan1; Capan1, dose 0.123 μM): 114%
viability at 0.37 µM (Capan1; Capan1, dose 0.370 μM): 112%
viability at 1.111 µM (Capan1; Capan1, dose 1.111 μM): 106%
viability at 3.333 µM (Capan1; Capan1, dose 3.333 μM): 100%
viability at 10 µM (Capan1; Capan1, dose 10.000 μM): 90%
viability at 30 µM (Capan1; Capan1, dose 30.000 μM): 95.4%
viability at 0.005 µM (PAXF1997; PAXF1997, dose 0.005 μM): 111%
viability at 0.014 µM (PAXF1997; PAXF1997, dose 0.014 μM): 111%
viability at 0.041 µM (PAXF1997; PAXF1997, dose 0.041 μM): 112%
viability at 0.123 µM (PAXF1997; PAXF1997, dose 0.123 μM): 114%
viability at 0.37 µM (PAXF1997; PAXF1997, dose 0.370 μM): 118%
viability at 1.111 µM (PAXF1997; PAXF1997, dose 1.111 μM): 110%
viability at 3.333 µM (PAXF1997; PAXF1997, dose 3.333 μM): 104%
viability at 10 µM (PAXF1997; PAXF1997, dose 10.000 μM): 83.7%
viability at 30 µM (PAXF1997; PAXF1997, dose 30.000 μM): 81.4%
viability at 0.005 µM (PANC1; Panc1, dose 0.005 μM): 103%
viability at 0.014 µM (PANC1; Panc1, dose 0.014 μM): 112%
viability at 0.041 µM (PANC1; Panc1, dose 0.041 μM): 113%
viability at 0.123 µM (PANC1; Panc1, dose 0.123 μM): 113%
viability at 0.37 µM (PANC1; Panc1, dose 0.370 μM): 113%
viability at 1.111 µM (PANC1; Panc1, dose 1.111 μM): 113%
viability at 3.333 µM (PANC1; Panc1, dose 3.333 μM): 100%
viability at 10 µM (PANC1; Panc1, dose 10.000 μM): 85.2%
viability at 30 µM (PANC1; Panc1, dose 30.000 μM): 86.2%
viability at 0.005 µM (BXPC3; BXPC3, dose 0.005 μM): 106%
viability at 0.014 µM (BXPC3; BXPC3, dose 0.014 μM): 105%
viability at 0.041 µM (BXPC3; BXPC3, dose 0.041 μM): 104%
viability at 0.123 µM (BXPC3; BXPC3, dose 0.123 μM): 104%
viability at 0.37 µM (BXPC3; BXPC3, dose 0.370 μM): 108%
viability at 1.111 µM (BXPC3; BXPC3, dose 1.111 μM): 102%
viability at 3.333 µM (BXPC3; BXPC3, dose 3.333 μM): 91.5%
viability at 10 µM (BXPC3; BXPC3, dose 10.000 μM): 77%
viability at 30 µM (BXPC3; BXPC3, dose 30.000 μM): 75.8%
viability at 0.005 µM (MIAPACA2; Miapaca2, dose 0.005 μM): 102%
viability at 0.014 µM (MIAPACA2; Miapaca2, dose 0.014 μM): 105%
viability at 0.041 µM (MIAPACA2; Miapaca2, dose 0.041 μM): 108%
viability at 0.123 µM (MIAPACA2; Miapaca2, dose 0.123 μM): 111%
viability at 0.37 µM (MIAPACA2; Miapaca2, dose 0.370 μM): 114%
viability at 1.111 µM (MIAPACA2; Miapaca2, dose 1.111 μM): 99.3%
viability at 3.333 µM (MIAPACA2; Miapaca2, dose 3.333 μM): 86.6%
viability at 10 µM (MIAPACA2; Miapaca2, dose 10.000 μM): 66.1%
viability at 30 µM (MIAPACA2; Miapaca2, dose 30.000 μM): 40%
Difference between rel +dox and −dox signal ([3]; 1 μM, sgGRK2-pooled): 0.00
Rel +dox ([3]; 1 μM, sgGRK2-pooled): 0.76
Rel −dox ([3]; 1 μM, sgGRK2-pooled): 0.75
Difference between rel +dox and −dox signal ([3]; 1 μM, sgNTC): 0.05
Rel +dox ([3]; 1 μM, sgNTC): 0.77
Rel −dox ([3]; 1 μM, sgNTC): 0.81
Difference between rel +dox and −dox signal ([3]; 3 μM, sgGRK2-pooled): 0.04
Rel +dox ([3]; 3 μM, sgGRK2-pooled): 0.43
Rel −dox ([3]; 3 μM, sgGRK2-pooled): 0.47
Difference between rel +dox and −dox signal ([3]; 3 μM, sgNTC): 0.12
Rel +dox ([3]; 3 μM, sgNTC): 0.53
Rel −dox ([3]; 3 μM, sgNTC): 0.65
Difference between rel +dox and −dox signal [4, 6]: 0.45
Rel +dox [4, 6]: 0.44
Rel −dox [4, 6]: 0.89
Difference between rel +dox and −dox signal [4, 7]: 0.37
Rel +dox [4, 7]: 0.40
Rel −dox [4, 7]: 0.78
Difference between rel +dox and −dox signal ([4]; PAXF1657, 1 μM, sgGRK2-pooled): 0.29
Rel +dox ([4]; PAXF1657, 1 μM, sgGRK2-pooled): 0.49
Rel −dox ([4]; PAXF1657, 1 μM, sgGRK2-pooled): 0.78
Difference between rel +dox and −dox signal ([4]; PAXF1657, 1 μM, sgNTC): −0.04
Rel +dox ([4]; PAXF1657, 1 μM, sgNTC): 0.78
Rel −dox ([4]; PAXF1657, 1 μM, sgNTC): 0.73
Difference between rel +dox and −dox signal [4, 8]: 0.26
Rel +dox [4, 8]: 0.41
Rel −dox [4, 8]: 0.67
Difference between rel +dox and −dox signal [4, 9]: 0.32
Rel +dox [4, 9]: 0.22
Rel −dox [4, 9]: 0.55
Difference between rel +dox and −dox signal ([4]; PAXF1657, 3 μM, sgGRK2-pooled): 0.11
Rel +dox ([4]; PAXF1657, 3 μM, sgGRK2-pooled): 0.48
Rel −dox ([4]; PAXF1657, 3 μM, sgGRK2-pooled): 0.59
Difference between rel +dox and −dox signal ([4]; PAXF1657, 3 μM, sgNTC): 0.01
Rel +dox ([4]; PAXF1657, 3 μM, sgNTC): 0.56
Rel −dox ([4]; PAXF1657, 3 μM, sgNTC): 0.57
